In patent US12630521B2, “Arylamides and methods of use thereof” (Genzyme Corporation, priority 2019, dated 2026):

Experiments:
[1] = biological target: T1, CFTR (ΔF508 homozygous CF-HBE cells) (Homo sapiens, UniProt P13569, DEL508-508); assay: TECC24 AUC fold over DMSO @10 uM: CFTR-mediated transepithelial chloride transport in primary CF-HBE cells; assay type: cell-based; details: 10 μM test agent, 48 hours, forskolin-stimulated IEQ AUC divided by vehicle AUC
T1 construct: Primary human bronchial epithelial cells from a ΔF508 homozygous CF donor; host or cells: primary CF-HBE cells (ΔF508/ΔF508 donor)
Method in brief: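 Primary ΔF508-homozygous CF bronchial epithelial cells were exposed to test agent for 48 h at 36.5° C, then VT and TEER were recorded with benzamil (10 μM), forskolin (10 μM) stimulation and CFTR inhibitor-172 (20 μM) at the end. AUC of equivalent Cl- current between forskolin and inhibitor is expressed as fold over DMSO vehicle.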

[2] = biological target: T2, human Cystic Fibrosis Transmembrane Conductance Regulator (CFTR) harboring the ΔF508 mutation (Homo sapiens, UniProt P13569, DEL508-508); assay: H441 cell Emax and EC50: HRP-tagged ΔF508-CFTR cell-surface luminescence assay; assay type: cell-based; details: H441 cells expressing HRP-tagged ΔF508-CFTR, 27° C. for two nights; for EC50: 15-point dose-response; for Emax: NCI-H441, % of maximum VX809 signal
T2 construct: expressed in transfected cells; host or cells: H441 carcinoma cell line (G418 selection)
Method in brief: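 H441 cells expressing ΔF508-CFTR with HRP fused in extracellular loop 4 (CMV promoter), ~10K cells/well, 15-point dose range 24.5 to 0.001 μM, incubated at 27° C. for two nights. Surface CFTR read by Luminata Forte luminescence; Emax as % of maximum VX809 signal, plus EC50.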

T2 sequence (P13569 with tags, fused parts or gaps DEL508-508): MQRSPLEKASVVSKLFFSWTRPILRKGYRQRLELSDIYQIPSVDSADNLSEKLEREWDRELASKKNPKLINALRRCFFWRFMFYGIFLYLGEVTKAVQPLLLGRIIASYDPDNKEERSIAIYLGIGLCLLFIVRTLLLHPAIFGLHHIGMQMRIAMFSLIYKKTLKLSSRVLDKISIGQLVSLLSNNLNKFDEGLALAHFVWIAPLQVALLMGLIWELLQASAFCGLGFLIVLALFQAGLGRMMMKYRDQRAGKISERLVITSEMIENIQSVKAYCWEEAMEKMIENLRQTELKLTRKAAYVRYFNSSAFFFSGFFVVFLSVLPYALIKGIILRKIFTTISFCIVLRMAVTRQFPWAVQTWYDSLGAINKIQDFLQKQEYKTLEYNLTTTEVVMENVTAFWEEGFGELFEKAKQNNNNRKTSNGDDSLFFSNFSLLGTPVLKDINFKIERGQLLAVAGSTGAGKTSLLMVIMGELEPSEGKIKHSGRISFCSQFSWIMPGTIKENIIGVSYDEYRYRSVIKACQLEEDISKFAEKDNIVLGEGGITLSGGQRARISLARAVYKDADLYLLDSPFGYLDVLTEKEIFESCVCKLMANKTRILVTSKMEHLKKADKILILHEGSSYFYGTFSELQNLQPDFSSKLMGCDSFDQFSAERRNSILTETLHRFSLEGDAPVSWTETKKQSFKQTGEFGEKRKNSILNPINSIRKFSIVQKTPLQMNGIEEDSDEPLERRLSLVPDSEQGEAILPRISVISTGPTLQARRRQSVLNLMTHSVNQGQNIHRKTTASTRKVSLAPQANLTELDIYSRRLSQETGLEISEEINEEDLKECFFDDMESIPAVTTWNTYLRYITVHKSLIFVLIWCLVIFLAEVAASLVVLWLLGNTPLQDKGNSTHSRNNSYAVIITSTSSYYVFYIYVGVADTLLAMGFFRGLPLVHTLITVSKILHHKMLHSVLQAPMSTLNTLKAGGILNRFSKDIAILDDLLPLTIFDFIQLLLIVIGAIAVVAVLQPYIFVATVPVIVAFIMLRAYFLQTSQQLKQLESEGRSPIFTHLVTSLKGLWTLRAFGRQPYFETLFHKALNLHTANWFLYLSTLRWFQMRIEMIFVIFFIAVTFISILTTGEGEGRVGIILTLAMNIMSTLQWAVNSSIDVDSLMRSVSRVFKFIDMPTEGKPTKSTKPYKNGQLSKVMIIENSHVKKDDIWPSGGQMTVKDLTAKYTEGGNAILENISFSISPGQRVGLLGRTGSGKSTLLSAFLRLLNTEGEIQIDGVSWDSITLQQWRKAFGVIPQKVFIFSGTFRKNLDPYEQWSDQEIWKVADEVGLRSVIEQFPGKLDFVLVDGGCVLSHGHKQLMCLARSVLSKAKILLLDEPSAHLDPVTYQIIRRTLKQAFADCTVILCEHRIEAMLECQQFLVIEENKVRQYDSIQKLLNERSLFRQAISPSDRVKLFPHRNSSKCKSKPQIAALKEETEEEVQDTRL
T1 sequence (P13569 with tags, fused parts or gaps DEL508-508): as above

Row | Structure (SMILES) | TECC24 AUC fold over DMSO [1] | EC50 [2] [nM] | Emax [2] [%]
1 | CCC(C)(C)[C@H](NC(=O)c1ccc2sc(C)cc2c1OCc1ccc(OC(F)(F)F)cc1)C(=O)O [Compound 33-30, (2S)-3,3-dimethyl-2-(2-methyl-4-((4-(trifluoromethoxy)benzyl)oxy)-benzo[b]thiophene-5-carboxamido)pentanoic acid] | A (“A” refers to AUC @10 μM > 6) | 102 | 263
2 | CCC(C)(C)[C@H](NC(=O)c1ccc2sc(C(F)(F)F)cc2c1OCc1ccc(C(F)(F)F)cc1)C(=O)O [Compound 33-25, (2S)-3,3-dimethyl-2-(2-(trifluoromethyl)-4-((4-(trifluoromethyl)benzyl)oxy)-benzo[b]thiophene-5-carboxamido)pentanoic acid] | A (“A” refers to AUC @10 μM > 6) | 577 | 200
3 | CCC(C)(C)[C@H](NC(=O)c1ccc2sc(C)c(Cl)c2c1OCc1ccc(OC(F)(F)F)cc1)C(=O)O [Compound 33-9, (2S)-2-(3-chloro-2-methyl-4-((4-(trifluoromethoxy)benzyl)oxy)-benzo[b]thiophene-5-carboxamido)-3,3-dimethylpentanoic acid] | A (“A” refers to AUC @10 μM > 6) | 1130 | 250
4 | CCC(C)(C)[C@H](NC(=O)c1ccc2sc(Cl)c(C)c2c1OCc1ccc(OC(F)(F)F)cc1)C(=O)O [Compound 34-1, (S)-2-(2-chloro-3-methyl-4-((4-(trifluoromethoxy)benzyl)oxy)-benzo[b]thiophene-5-carboxamido)-3,3-dimethylpentanoic acid] | A (“A” refers to AUC @10 μM > 6) | 358 | 179
5 | CCc1cc2ccc(C(=O)N[C@H](C(=O)O)C(C)(C)C)c(OCc3ccc(OC(F)(F)F)cc3)c2s1 [Compound 33-26, (2S)-2-(2-ethyl-7-((4-(trifluoromethoxy)benzyl)oxy)-benzo[b]thiophene-6-carboxamido)-3,3-dimethylbutanoic acid] | B (“B” refers to AUC @10 μM between 4-6) | 1090 | 197
6 | CCC(C)(C)[C@H](NC(=O)c1ccc2cc(CCC(C)C)sc2c1OCc1ccc(C(F)(F)F)cc1)C(=O)O [Compound 33-32, (2S)-2-(2-isopentyl-7-((4-(trifluoromethyl)benzyl)oxy)-benzo[b]thiophene-6-carboxamido)-3,3-dimethylpentanoic acid] | B (“B” refers to AUC @10 μM between 4-6) | 277 | 168
7 | CCC(C)(C)[C@H](NC(=O)c1ccc2cc(C)sc2c1OCc1ccc(OC(F)(F)F)cc1)C(=O)O [Compound 33-18, (2S)-3,3-dimethyl-2-(2-methyl-7-((4-(trifluoromethoxy)benzyl)oxy)-benzo[b]thiophene-6-carboxamido)pentanoic acid] | A (“A” refers to AUC @10 μM > 6) | 1150 | 217
8 | CCC(C)(C)[C@H](NC(=O)c1ccc2sc(CCC(C)C)cc2c1OCc1ccc(C(F)(F)F)cc1)C(=O)O [Compound 33-16, (2S)-2-(2-isopentyl-4-((4-(trifluoromethyl)benzyl)oxy)-benzo[b]thiophene-5-carboxamido)-3,3-dimethylpentanoic acid] | B (“B” refers to AUC @10 μM between 4-6) | 340 | 218
9 | Cc1c(Cl)sc2ccc(C(=O)N[C@H](C(=O)O)C3(C)CC3)c(OCc3ccc(C(F)(F)F)cc3)c12 [Compound 34-7, (S)-2-(2-chloro-3-methyl-4-((4-(trifluoromethyl)benzyl)oxy)-benzo[b]thiophene-5-carboxamido)-2-(1-methylcyclopropyl)acetic acid] | A (“A” refers to AUC @10 μM > 6) | 612 | 84.2

Continued, values first:

Row | TECC24 AUC fold over DMSO [1] | EC50 [2] [nM] | Emax [2] [%] | Structure (SMILES)
10 | B (“B” refers to AUC @10 μM between 4-6) | 1040 | 81.3 | CC(C)(C)[C@H](NC(=O)c1ccc2sccc2c1OCc1ccc(SC(F)(F)F)cc1)C(=O)O [Compound 32-11, (2S)-3,3-dimethyl-2-(4-((4-((trifluoromethyl)thio)benzyl)oxy)-benzo[b]thiophene-5-carboxamido)butanoic acid]
11 | A (“A” refers to AUC @10 μM > 6) | 637 | 238 | CC(C)c1cc2c(OCc3ccc(C(F)(F)F)cc3)c(C(=O)N[C@H](C(=O)O)C(C)(C)C)ccc2s1 [Compound 33-34, (2S)-2-(2-isopropyl-4-((4-(trifluoromethyl)benzyl)oxy)-benzo[b]thiophene-5-carboxamido)-3,3-dimethylbutanoic acid]
12 | C (“C” refers to AUC @10 μM < 4) | 3200 | 112 | CC(C)(c1ccccc1)C(NC(=O)c1ccc2sccc2c1OCC1CCC(F)(F)CC1)C(=O)O (stereo not drawn) [Compound 32-2, 2-(4-((4,4-difluorocyclohexyl)methoxy)-benzo[b]thiophene-5-carboxamido)-3-methyl-3-phenylbutanoic acid]
13 | A (“A” refers to AUC @10 μM > 6) | 281 | 159 | Cc1c(Cl)sc2ccc(C(=O)N[C@H](C(=O)O)C(C)(C)C)c(OCc3ccc(OC(F)(F)F)cc3)c12 [Compound 34-4]
14 | C (“C” refers to AUC @10 μM < 4) | 6890 | 127 | CC(C)(C)[C@H](NC(=O)c1ccc2sccc2c1OCC1CCC(F)(F)CC1)C(=O)O [Compound 32-7, (2S)-2-(4-((4,4-difluorocyclohexyl)methoxy)-benzo[b]thiophene-5-carboxamido)-3,3-dimethylbutanoic acid]
15 | A (“A” refers to AUC @10 μM > 6) | 1130 | 315 | CCc1cc2c(OCc3ccc(OC(F)(F)F)cc3)c(C(=O)N[C@H](C(=O)O)C(C)(C)C)ccc2s1 [Compound 33-23, (2S)-2-(2-ethyl-4-((4-(trifluoromethoxy)benzyl)oxy)-3a,7a-benzo[b]thiophene-5-carboxamido)-3,3-dimethylbutanoic acid]
16 | C (“C” refers to AUC @10 μM < 4) | 3200 | 57.7 | CC(C)(C)[C@H](NC(=O)c1ccc2sc(-c3cscn3)cc2c1OCc1ccc(C(F)(F)F)cc1)C(=O)O [Compound 33-17, (2S)-3,3-dimethyl-2-(2-(thiazol-4-yl)-4-((4-(trifluoromethyl)benzyl)oxy)-benzo[b]thiophene-5-carboxamido)butanoic acid]
17 | B (“B” refers to AUC @10 μM between 4-6) | 474 | 187 | Cc1cc2ccc(C(=O)N[C@H](C(=O)O)C(C)(C)C)c(OCc3ccc(C(F)(F)F)cc3)c2s1 [Compound 33-11, (2S)-3,3-dimethyl-2-(2-methyl-7-((4-(trifluoromethyl)benzyl)oxy)-benzo[b]thiophene-6-carboxamido)butanoic acid]
18 | A (“A” refers to AUC @10 μM > 6) | 377 | 324 | Cc1cc2c(OCc3ccc(OC(F)(F)F)cc3)c(C(=O)N[C@H](C(=O)O)C(C)(C)C)ccc2s1 [Compound 33-13, (2S)-3,3-dimethyl-2-(2-methyl-4-((4-(trifluoromethoxy)benzyl)oxy)-benzo[b]thiophene-5-carboxamido)butanoic acid]
19 | C (“C” refers to AUC @10 μM < 4) | 470 | 146 | Cc1csc2ccc(C(=O)N[C@H](C(=O)O)C(C)(C)C)c(OCc3ccc(C(F)(F)F)cc3)c12 [Compound 35-2, (2S)-3,3-dimethyl-2-[[3-methyl-4-[[4-(trifluoromethyl)phenyl]methoxy]-benzothiophene-5-carbonyl]amino]butanoic acid]
20 | A (“A” refers to AUC @10 μM > 6) | 641 | 312 | COc1cc2c(OCc3ccc(C(F)(F)F)cc3)c(C(=O)N[C@H](C(=O)O)C(C)(C)C)ccc2s1 [Compound 33-7, (2S)-2-(2-methoxy-4-((4-(trifluoromethyl)benzyl)oxy)-benzo[b]thiophene-5-carboxamido)-3,3-dimethylbutanoic acid]
21 | C (“C” refers to AUC @10 μM < 4) | 2780 | 210 | CC(C)(C)[C@H](NC(=O)c1ccc2sccc2c1OCC1CCCCC1)C(=O)O [Compound 32-14, (2S)-2-(4-(cyclohexylmethoxy)-benzo[b]thiophene-5-carboxamido)-3,3-dimethylbutanoic acid]
